Measurements: ChEMBL document CHEMBL1124469, “Synthesis and dopaminergic activity of 2-substituted octahydrobenzo[f]quinolines” (J Med Chem, 1989)

How the values were obtained:
D(2) dopamine receptor [1] = target: T1, D(2) dopamine receptor (Bos taurus, UniProt P20288); experiment: Low binding affinity for dopamine D-2 receptor from bovine anterior pituitary membrane, using radioligand [3H]spiroperidol
[2] = target: D(2) dopamine receptor (Bos taurus) (UniProt P20288); experiment: Low percent binding affinity for different states of the Dopamine D-2 receptor in bovine anterior pituitary membranes, using radioligand [3H]spiroperidol; assay type: cell membranes
D(2) dopamine receptor [3] = target: T1, D(2) dopamine receptor; experiment: Low binding affinity for dopamine D-2 receptor from bovine anterior pituitary membrane, using radioligand [3H]spiroperidol in bovine anterior pituitary membranes; assay type: cell membranes
D(2) dopamine receptor [4] = target: T1, D(2) dopamine receptor; experiment: High binding affinity for dopamine D-2 receptor from bovine anterior pituitary membrane, using radioligand [3H]spiroperidol in bovine anterior pituitary membranes; assay type: cell membranes
[5] = target: D(2) dopamine receptor (Bos taurus) (UniProt P20288); experiment: High percent binding affinity for different states of the Dopamine receptor D2 in bovine anterior pituitary membranes, using radioligand [3H]spiroperidol
[6] = target: D(2) dopamine receptor (Bos taurus) (UniProt P20288); experiment: Low percent binding affinity for different states of the dopamine receptor D2 in bovine anterior pituitary membranes, using radioligand [3H]spiroperidol; assay type: cell membranes
D(2) dopamine receptor [7] = target: T1, D(2) dopamine receptor; experiment: Low binding affinity for dopamine receptor D2 from bovine anterior pituitary membrane, using radioligand [3H]spiroperidol in bovine anterior pituitary membranes; assay type: cell membranes
D(2) dopamine receptor [8] = target: T1, D(2) dopamine receptor; experiment: High binding affinity for dopamine D-2 receptor from bovine anterior pituitary membrane, using radioligand [3H]spiroperidol

T1 sequence (P20288 whole entry): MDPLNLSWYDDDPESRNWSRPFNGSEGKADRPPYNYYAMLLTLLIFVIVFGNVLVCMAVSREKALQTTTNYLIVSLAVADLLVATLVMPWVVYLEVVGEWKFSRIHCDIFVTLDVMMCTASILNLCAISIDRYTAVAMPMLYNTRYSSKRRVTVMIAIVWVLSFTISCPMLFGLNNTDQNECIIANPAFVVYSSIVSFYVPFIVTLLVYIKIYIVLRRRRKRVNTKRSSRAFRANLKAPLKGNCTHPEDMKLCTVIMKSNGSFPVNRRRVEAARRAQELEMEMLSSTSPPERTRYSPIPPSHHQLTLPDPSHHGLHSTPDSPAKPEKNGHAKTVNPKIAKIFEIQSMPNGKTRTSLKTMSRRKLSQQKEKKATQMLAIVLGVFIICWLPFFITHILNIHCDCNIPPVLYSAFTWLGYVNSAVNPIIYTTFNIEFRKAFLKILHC
D(2) dopamine receptor (Bos taurus), sequence (P20288 whole entry): as above

Work on `CCCN1C[C@H](CC#N)C[C@@H]2c3ccc(O)c(O)c3CC[C@H]21` yielded a Ki (D(2) dopamine receptor [1]) of 1460 nM and a Low [2] of 100%.
Compound `CCCN1C[C@H](CC#N)C[C@@H]2c3cc(O)ccc3CC[C@H]21` has a Ki (D(2) dopamine receptor [3]) of 280 nM, a Low [2] of 70% and a Ki (D(2) dopamine receptor [4]) of 4 nM. For the same compound, the Percent of receptors in high-affinity state [5] was 30%.
Compound `CCCN1C[C@H](CSC)C[C@@H]2c3ccc(O)c(O)c3CC[C@H]21` has a Ki (D(2) dopamine receptor [1]) of 1730 nM and a Low [2] of 100%.
Work on `CCCN1C[C@H](C)C[C@@H]2c3cccc(O)c3CC[C@H]21` yielded a Low [2] of 100%.
With `CCCN1C[C@H](CSC)C[C@@H]2c3cc(O)c(O)cc3CC[C@H]21` the Low [2] was 67% and the Percent of receptors in high-affinity state [5] was 33%.
Work on `CCCN1C[C@H](CSC)C[C@@H]2c3cc(O)ccc3CC[C@H]21` yielded a Ki (D(2) dopamine receptor [3]) of 1210 nM, a Low [2] of 79% and a Ki (D(2) dopamine receptor [4]) of 14 nM. It also gave a Percent of receptors in high-affinity state [5] of 21%.
Work on `CCCN1C[C@H](CSC)C[C@@H]2c3cccc(O)c3CC[C@H]21` yielded a Low [6] of 100% and a Ki (D(2) dopamine receptor [7]) of 250 nM.
With `CCCN1C[C@H](CC#N)C[C@@H]2c3cc(O)c(O)cc3CC[C@H]21` the Ki (D(2) dopamine receptor [1]) was 360 nM, the Low [2] was 56% and the Ki (D(2) dopamine receptor [8]) was 6 nM. For the same compound, the Percent of receptors in high-affinity state [5] was 44%.
`CCCN1C[C@H](C)C[C@@H]2c3cc(O)ccc3CC[C@H]21` gave a Ki (D(2) dopamine receptor [1]) of 1940 nM, a Low [2] of 87% and a Ki (D(2) dopamine receptor [8]) of 8 nM. The Percent of receptors in high-affinity state [5] was 13%.
With `NCCc1ccc(O)c(O)c1` the Low [2] was 69% and the High [5] was 31%.
Work on `CCCN1C[C@H](CC#N)C[C@@H]2c3cccc(O)c3CC[C@H]21` yielded a Ki (D(2) dopamine receptor [3]) of 5390 nM and a Low [2] of 100%.
